Data as given in patent publication US20120010075A1 (priority 2009, published 2012).
Where two headings read alike, the source gives them in different places.

Experiments:
[1] = test system: Leptosphaeria nodorum (LEPTNO); assay: In vitro fungitoxicity of hydrazones with and without copper towards Leptosphaeria nodorum (Example 26); assay type: cell-based; settings: 72 h at 25° C.; for inhibition of growth at 0.05 µg/mL: Parastagonospora nodorum, 72 h, read-out: LEPTNO % Inhn. Minus Copper Observed
Phytophthora infestans = assay type: in vivo, Phytophthora infestans on tomato; settings: applied 24 h before inoculation, assessed 7 days after inoculation
[2] = copper-minus medium, test compound Concn. 0.05 μg/mL
[3] = copper-plus medium (CuCl2 10 μM), test compound Concn. 0.05 μg/mL
[4] = hydrazone 50 ppm with 50 μM CuCl2.2H2O, tomato late blight
[5] = compound 0.05 μg/mL, copper-minus medium
[6] = compound 0.05 μg/mL, copper-plus medium (CuCl2.2H2O)
[7] = hydrazone 50 ppm + 50 μM CuCl2.2H2O, tomato

SMILES | inhibition of growth at 0.05 µg/mL [1, 2] [%] | LEPTNO % Inhn. Plus Copper Observed [1, 3] [%] | TLB % Control (Phytophthora infestans; [4]) [%] | melting point [°C] | inhibition of growth at 0.05 µg/mL [1, 5] [%] | LEPTNO % Inhn. Plus Copper Observed [1, 6] [%] | TLB % Control (Phytophthora infestans; [7]) [%] | LEPTNO % Inhn. Minus Copper Observed [1, 5] [%]
C/C(=N\NC(=O)c1ccc(C(F)(F)F)cc1)c1cccc(Cl)c1O [Example 501] | 0.5 | 98.0 | 89.0 | 250 to 256 | – | – | – | –
O=C(N/N=C/c1cc(C(F)(F)F)cc(C(F)(F)F)c1O)c1ccccc1O [Example 340] | 18 | 96.2 | 95.0 | 231 to 235 | – | – | – | –
O=C(N/N=C/c1ccc(Cl)cc1O)c1cccc(F)c1 [Example 389] | 7.7 | 97.6 | 95.0 | 218 to 222 | – | – | – | –
Cc1ccc(C(=O)N/N=C/c2cccc(C(F)(F)F)c2O)cc1 [Example 344] | 31.5 | 91.8 | 100.0 | 239 to 241 | – | – | – | –
O=C(N/N=C/c1cc(Cl)c(C(F)(F)F)cc1O)c1ccccc1 [Example 318] | 3.1 | 97.3 | 71.2 | 242 to 243 | – | – | – | –
C/C(=N\NC(=O)c1cccc(Cl)c1)c1ccc(Cl)cc1O [Example 256] | – | – | – | 222 to 223 | 3 | 98.7 | 18.0 | –
CC/C(=N\NC(=O)c1ccc(C)cc1C)c1ccccc1O [Example 34] | – | – | – | 175 to 176 | – | 97.8 | 68.4 | 0.0
COc1ccc(C(=O)N/N=C(\C)c2cc(Cl)cc(Cl)c2O)cc1 [Example 469] | 1 | 97.8 | 95.0 | 226 to 227 | – | – | – | –
C/C(=N\NC(=O)c1cccc(C)c1)c1cc(Br)cc(Br)c1O [Example 541] | 0 | 97.5 | 93.0 | 236 to 238 | – | – | – | –
COc1ccc(O)c(/C(C)=N/NC(=O)c2ccccc2)c1 [Example 261] | – | – | – | 150 to 152 | 2.7 | 97.9 | 10.0 | –
O=C(N/N=C/c1cc(C(F)(F)F)cc(C(F)(F)F)c1O)c1ccc(F)cc1 [Example 335] | 10.2 | 96.8 | 95.0 | 226 to 228 | – | – | – | –
COc1ccc(/C(C)=N/NC(=O)c2cccc(C)c2)c(O)c1 [Example 282] | – | – | – | 184 to 185 | 0 | 94.7 | 52.0 | –
C/C(=N\NC(=O)c1cccc(Cl)c1)c1cc(C(F)(F)F)ccc1O [Example 532] | 4.9 | 91.4 | 56.0 | 241 to 245 | – | – | – | –
Cc1ccc(/C=N/NC(=O)c2ccccc2)c(O)c1 [Example 234] | – | – | – | 179 to 182 | 0 | 94.3 | 72.9 | –
C/C(=N\NC(=O)c1ccc(C)cc1)c1ccc(Cl)cc1O [Example 254] | – | – | – | 254 to 256 | 8.3 | 98.1 | 0.0 | –
Cc1ccc(C(=O)N/N=C/c2cc(Cl)ccc2O)c(O)c1 [Example 446] | 23.5 | 95.4 | 57.0 | 282 to 286 | – | – | – | –
COc1cccc(O)c1/C=N/NC(=O)c1ccccc1 [Example 237] | – | – | – | 215 to 216 | 0 | 91.8 | 45.0 | –
